Results from patent US20100273722A1, “MODIFIED MINIATURE PROTEINS” (Yale University, priority 2007, published 2010).
Values joined by “and” are separate entries in the source; they are usually repeats but may differ in a detail not shown here. Identical values can stand only once. Like-named read-outs stand apart in the source and are kept apart here. Residues, ends and D or L forms follow the SMILES beside them.

How the values were obtained:
[1] = biological target: non-Src family SH3 domain (Ab1, Nck1, Grb2, Abp1); assay: Fluorescence polarization binding to non-Src family SH3 domains; settings: data not shown
Description: Fluorescence polarization assays were performed with 50 nM fluorescently labeled miniature protein and the indicated SH3 domain-GST fusion protein in PBS (1 mM KH2PO4, 155 mM NaCl, 3 mM Na2HPO4 (pH 7.4)) supplemented with 1 mM DTT and using the Analyst™ AD 96·384 automated fluorescence plate reader (LjL Biosystems). Binding reactions (32 microliters) were analyzed within 384-well assay plates (Corning Inc., Plate #3654) using settings defined by Criterion Host software v.2.00.11 and z height 1 mm. Polarization was measured by excitation with vertically polarized light at 485 nm and the fluorescence emission detected at 530 nm in both the vertical and horizontal directions. An average of five measurements were recorded for each well. Samples were equilibrated at room temperature for 25 min before analysis, a time sufficient for the binding reactions to reach equilibrium. […]
In this equation, Pobs is the observed polarization value at any given concentration of target protein (GST•SH3 domain). […] The observed binding free energy, ΔG, was calculated from the relationship ΔG=−RT ln Kd^−1, where R is the universal gas constant (1.987×10^−3 kcal mol^−1 K^−1) and T is the temperature in Kelvin (298 K). Fluorescence polarization analysis of the binding of fluorescently labeled miniature proteins and Peptide 1 to c-Src SH3^P133L are shown in FIG. 11. […]

Hck kinase = biological target: T1, Hck kinase (Homo sapiens, UniProt P08631); assay: Hck kinase activation, NADH-coupled assay; assay type: biochemical; settings: Activator 50 micromolar
T1 construct: His6 (N); made in house; host or cells: HighFive insect cells, co-infected with Hck and Csk baculovirus
Description: Activation of Hck kinase was measured using a validated NADH-coupled assay as described. Briefly, purified Hck kinase (15 micromolar) was first pre-incubated with 500 micromolar ATP and 20 mM MgCl2 for about 30 min on ice to initiate autophosphorylation of Y416. The autophosphorylated product (0.55 micromolar final concentration) was then incubated in Hck Reaction Buffer (20 mM MgCl2, 0.1 mM DTT, 20 μg/mL BSA, 100 mM HEPES (pH 7.5)) for 10 min at room temperature with the indicated concentration of Nef or miniature protein. At this time the remaining assay components (1 mM PEP, 0.2 mM NADH, 6 U pyruvate kinase (Type II from rabbit muscle, Sigma), 6 U L-lactic dehydrogenase (Type II from rabbit muscle, Sigma), 600 micromolar substrate peptide, and 500 micromolar ATP) were added to initiate the reaction (total volume 200 microliters) and the absorbance at 340 nm was monitored every 10 sec for 10 min using a Beckman DU 730 UVN is Spectrophotomer. The activation constant Kact for each ligand was calculated from the initial rate as a function of ligand concentration as previously described, using Eq. 6. Fold activation was calculated by dividing the rate in the presence of ligand by the rate in the absence of ligand.
va=Vact[L]/(Kact±[L]) Equation 6.
In this equation va is velocity measured in the presence of ligand minus the velocity measured in its absence; Vact is the maximal activated velocity minus the velocity measured in the absence of ligand; [L] is the concentration of activator and Kact is concentration of activator at half-maximal activation.

[2] = biological target: Lyn SH3 domain-GST fusion protein (Homo sapiens, UniProt P07948); assay: Fluorescence polarization direct binding assay, Lyn SH3; settings: 50 nM fluorescently labeled ligand, PBS pH 7.4; read-out: Kd, Lyn SH3
Description: (§1) Polarization was measured by excitation with vertically polarized light at 485 nm and the fluorescence emission detected at 530 nm in both the vertical and horizontal directions. An average of five measurements were recorded for each well. Samples were equilibrated at room temperature for 25 min before analysis, a time sufficient for the binding reactions to reach equilibrium. The polarization data were fit using Kaleidagraph v3.6 software to Eq. 5, which is derived from first principles without assumptions. […] In this equation, Pobs is the observed polarization value at any given concentration of target protein (GST•SH3 domain). Pmin is the polarization of peptide^Flu at 50 nM in the absence of target protein. Pmax is the maximum polarization of peptide^Flu at saturation with target protein. Kd is the equilibrium dissociation constant. […] In these cases a lower limit Kd was estimated by setting Pmax equal to the observed polarization at the highest target protein concentration tested, which was often limited by solubility. […] Free fits are shown. Kd values were estimated as described. […] In several cases, the plots of polarization versus [SH3 domain] began to increase at high [SH3 domain] (>50 micromolar), perhaps because of a second binding event. In these cases (indicated by an asterisk (*) in Table 5), data above 50 micromolar target protein was excluded during the curve fits.

[3] = biological target: Hck SH3 domain-GST fusion protein (Homo sapiens, UniProt P08631); assay: Fluorescence polarization direct binding assay, Hck SH3; settings: 50 nM fluorescently labeled ligand, PBS pH 7.4; read-out: Kd, Hck SH3
Description: (§2) Polarization was measured by excitation with vertically polarized light at 485 nm and the fluorescence emission detected at 530 nm in both the vertical and horizontal directions. An average of five measurements were recorded for each well. Samples were equilibrated at room temperature for 25 min before analysis, a time sufficient for the binding reactions to reach equilibrium. The polarization data were fit using Kaleidagraph v3.6 software to Eq. 5, which is derived from first principles without assumptions. […] In this equation, Pobs is the observed polarization value at any given concentration of target protein (GST•SH3 domain). Pmin is the polarization of peptide^Flu at 50 nM in the absence of target protein. Pmax is the maximum polarization of peptide^Flu at saturation with target protein. Kd is the equilibrium dissociation constant. […] Free fits are shown. Kd values were estimated as described.

[4] = biological target: T2, c-Src SH3 domain-GST fusion protein (Gallus gallus, UniProt P00523); assay: Fluorescence polarization direct binding assay, c-Src SH3; design: species or system chicken; settings: 50 nM fluorescently labeled ligand, PBS pH 7.4; read-out: Kd, c-Src SH3
Description: as §2

[5] = biological target: Lck SH3 domain-GST fusion protein (Homo sapiens, UniProt P06239); assay: Fluorescence polarization direct binding assay, Lck SH3; settings: 50 nM fluorescently labeled ligand, PBS pH 7.4; read-out: Kd, Lck SH3
Description: as §1

[6] = biological target: Fyn SH3 domain-GST fusion protein (Homo sapiens, UniProt P06241); assay: Fluorescence polarization direct binding assay, Fyn SH3; settings: 50 nM fluorescently labeled ligand, PBS pH 7.4; read-out: Kd, Fyn SH3
Description: as §1

c-Src SH3^P133L = c-Src SH3^P133L (Gallus gallus, UniProt P00523, P133L); assay: Fluorescence polarization direct binding assay, c-Src SH3^P133L; design: species or system chicken; settings: 50 nM fluorescently labeled ligand; lower limit estimated; read-out: Kd, c-Src P133L SH3
Description: as §2

[7] = biological target: T2, c-Src SH3 domain-GST fusion protein; settings: literature value; read-out: Kd, c-Src SH3 (reported); cited from earlier work

T1 sequence (P08631 whole entry): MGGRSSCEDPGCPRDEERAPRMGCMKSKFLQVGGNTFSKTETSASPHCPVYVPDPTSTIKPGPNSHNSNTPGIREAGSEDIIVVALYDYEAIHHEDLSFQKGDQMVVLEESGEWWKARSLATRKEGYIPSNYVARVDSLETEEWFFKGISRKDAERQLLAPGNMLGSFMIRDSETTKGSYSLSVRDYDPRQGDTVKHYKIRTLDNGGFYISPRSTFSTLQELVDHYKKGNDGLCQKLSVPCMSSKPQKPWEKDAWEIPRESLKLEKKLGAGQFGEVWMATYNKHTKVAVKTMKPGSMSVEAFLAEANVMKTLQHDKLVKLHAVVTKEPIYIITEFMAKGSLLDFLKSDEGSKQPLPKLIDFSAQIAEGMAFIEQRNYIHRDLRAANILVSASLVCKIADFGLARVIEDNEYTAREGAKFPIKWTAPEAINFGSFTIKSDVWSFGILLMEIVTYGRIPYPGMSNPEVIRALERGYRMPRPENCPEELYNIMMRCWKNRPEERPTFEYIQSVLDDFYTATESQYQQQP
Sequence of Lyn SH3 domain-GST fusion protein (P07948 62-122): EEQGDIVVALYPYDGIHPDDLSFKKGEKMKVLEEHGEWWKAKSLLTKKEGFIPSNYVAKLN
Sequence of Fyn SH3 domain-GST fusion protein (P06241 81-142): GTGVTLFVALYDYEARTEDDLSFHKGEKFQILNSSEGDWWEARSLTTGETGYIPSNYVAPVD
Sequence of Hck SH3 domain-GST fusion protein (P08631 77-137): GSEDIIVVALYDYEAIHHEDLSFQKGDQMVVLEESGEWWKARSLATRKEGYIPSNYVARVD
Sequence of Lck SH3 domain-GST fusion protein (P06239 62-128): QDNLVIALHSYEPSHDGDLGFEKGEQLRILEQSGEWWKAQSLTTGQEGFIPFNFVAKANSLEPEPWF

In the case of `CC(C)C[C@H](NC(=O)[C@H](CCCNC(=N)N)NC(=O)[C@@H]1CCCN1C(=O)[C@H](CCCNC(=N)N)NC(=O)[C@H](CC(N)=O)NC(=O)[C@H](CCCNC(=N)N)NC(=O)[C@@H]1CCCN1C(=O)[C@@H]1CCCN1C(=O)[C@H](CC(C)C)NC(=O)[C@@H]1CCCN1C(=O)[C@@H]1CCCN1C(=O)[C@H](C)N)C(N)=O` [Peptide 1] (H-APPLPPRNRPRL-NH2), the Kd [1] is reported as over 20000 nM, the Activity (Hck kinase) is reported as 33.9 ± 3.2 nmol/s and the Fold-Activation (Hck kinase; rate with ligand / rate without ligand) is reported as 3 and 3 ± 1. For the same compound, the Kd [2] was 870 to 2000 nM, the Kd [3] was 870 to 2000 nM and the Kd [4] was 1500 ± 100 nM. For the same compound, the Kd [5] was over 20000 nM, the Kd [6] was 870 to 2000 nM and the Kd (c-Src SH3^P133L) was over 20000 nM. For the same compound, the Kd [7] was 1200 nM.
